Test results published in US12186356B2, “Composition for preventing, alleviating, or treating allergic skin disease comprising as active ingredient extract of gardenia fruit from which pigment is removed” (KOREA INSTITUTE OF ORIENTAL MEDICINE, priority 2018, dated 2025).

Assays:
[1] = system: NC/Nga mouse with induced allergic atopic dermatitis (house dust mite antigen); assay: Skin state and number of scratching (itching) in an animal model with allergic atopic dermatitis, extract applied on skin; type: in vivo; conditions: applied on skin once a day for 14 days; itching counted for 20 minutes; p<0.001; FIG. 3
Protocol: On the skin of a 8-week old NC/Nga mouse, 100 mg of an ointment (AD Biostir, Japan) which contains components originating from house dust mite as an antigen causing allergic atopy were applied, total 6 times for 21 days with an interval of 3 to 4 days to induce allergic atopic dermatitis. Seven days after inducing allergic atopic dermatitis, the animal was applied with 1 mg/ml of the pharmaceutical (extract of gardenia fruit (GJE 1%), extract of gardenia fruit from which pigment is removed (GJE-CR 1%), or tacrolimus), once a day for 14 days. Thereafter, using the mouse with induced allergic dermatitis, number of itching for 20 minutes and level of skin damage on ear and back of the animal were examined once a week. All the measurement results are expressed in terms of mean and standard deviation (SD), and a difference among test groups was subjected to a statistical analysis using one-way ANOVA. Statistical significance was recognized when p is less than 0.05 (p<0.05).

inflammatory cells = assay: Change in inflammatory cell infiltration in ear and back skin tissues, H&E staining; type: in vivo, NC/Nga mouse; conditions: skin tissues of back and ear; applied on skin; p<0.01 or p<0.001; FIG. 4
Protocol: (§1) On the skin of a 8-week old NC/Nga mouse, 100 mg of an ointment (AD Biostir, Japan) which contains components originating from house dust mite as an antigen causing allergic atopy were applied, total 6 times for 21 days with an interval of 3 to 4 days to induce allergic atopic dermatitis. Seven days after inducing allergic atopic dermatitis, the animal was applied with 1 mg/ml of the pharmaceutical (extract of gardenia fruit (GJE 1%), extract of gardenia fruit from which pigment is removed (GJE-CR 1%), or tacrolimus), once a day for 14 days. Skin tissues of the ear and back of a mouse with induced allergic dermatitis were collected and, by H&E (hematoxylin and eosin) staining and use of an image measuring program (Solution FL ver 9.1), a change in inflammatory cell infiltration was determined. All the measurement results are expressed in terms of mean and standard deviation (SD), and a difference among test groups was subjected to a statistical analysis using one-way ANOVA. Statistical significance was recognized when p is less than 0.05 (p<0.05).

mast cells = assay: Number of mast cells in ear and back skin tissues, toluidine blue staining; type: in vivo, NC/Nga mouse; conditions: applied on skin, p<0.01 or p<0.001, FIG. 5
Protocol: as §1, with “toluidine blue (TB)” for “H&E (hematoxylin and eosin)”, “number of mast cells” for “a change in inflammatory cell infiltration”

[2] = system: NC/Nga mouse with induced allergic atopic dermatitis (house dust mite antigen); assay: Number of itching in an animal model with allergic atopic dermatitis, extract orally administered; type: in vivo; conditions: oral 100 mg/kg or 200 mg/kg once a day for 14 days; itching counted for 20 minutes; p<0.05 to p<0.001; FIG. 6
Protocol: On the skin of a 8-week old NC/Nga mouse, 100 mg of an ointment (AD Biostir, Japan) which contains components originating from house dust mite as an antigen causing allergic atopy were applied, total 6 times for 21 days with an interval of 3 to 4 days to induce allergic atopic dermatitis. On a day of starting the test, 150μl of 4% SDS were applied to the animal, and, after allowing it to stand for 1 hour, 100 mg of the house dust mite antigen were applied to back and both ears of the animal, respectively. Seven days after inducing allergic atopic dermatitis, the animal was orally administered with 100 mg/kg or 200 mg/kg of the pharmaceutical (extract of gardenia fruit or extract of gardenia fruit from which pigment is removed), once a day for 14 days.
Thereafter, using the animal model with induced allergic dermatitis, number of itching in the ear and back of the animal for 20 minutes was examined once a week to compare the effects obtained according to administration of a pharmaceutical. All the measurement results are expressed in terms of mean and standard deviation (SD), and a difference among test groups was subjected to a statistical analysis using one-way ANOVA. Statistical significance was recognized when p is less than 0.05 (p<0.05).

| Compound | number of scratching (number of itching) compared to the control group (Control) [1] | inflammatory cells compared to the control group (Control) (inflammatory cells) | mast cells compared to the control group (Control) (mast cells) | number of scratching (number of itching) over days compared to the control group (Control) [2] |
| --- | --- | --- | --- | --- |
| C=CC[C@@H]1/C=C(\C)C[C@H](C)C[C@H](OC)[C@H]2O[C@@](O)(C(=O)C(=O)N3CCCC[C@H]3C(=O)O[C@H](/C(C)=C/[C@@H]3CC[C@@H](O)[C@H](OC)C3)[C@H](C)[C@@H](O)CC1=O)[C@H](C)C[C@@H]2OC [tacrolimus] | decreased with statistical significance | decreased with statistical significance | decreased with statistical significance |  |
| C[C@]12C=CC(=O)C=C1CC[C@@H]1[C@@H]2[C@@H](O)C[C@@]2(C)[C@H]1CC[C@]2(O)C(=O)CO [prednisolone] |  |  |  | decreased with statistical significance |
